Results from USRE42890E1, “Furazanobenzimidazoles” (Basilea Pharmaceutica AG, priority 2003, dated 2011).
Like-named read-outs stand apart in the source and are kept apart here. Values belong to the compound of their own block, whether it stands above or below them.

What was measured:
Jily = assay: MTS proliferation assay, Jily; assay type: cell-based; conditions: 72 h incubation, read-out: MTS proliferation assay IC 50 Jily
Summary of the method: (§1)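 RPMI-1640 + 5% or 10% FCS; seeded 24 h pre-dose; cpd final 10/3/1/0.3 μM, max 5% DMSO in added volume; 72 h, 37° C, 7.5% CO2; MTS 3 h; A492.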

MRC5 = assay: MTS proliferation assay, MRC5; assay type: cell-based; conditions: MRC5, 72 h incubation, read-out: MTS proliferation assay IC 50 MRC5
Summary of the method: as §1

HeLa = assay: MTS proliferation assay, HeLa; assay type: cell-based, human; conditions: 72 h incubation, read-out: MTS proliferation assay IC 50 HeLa
Summary of the method: (§2)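 Seed cells (1.5*10^3-10^4/well) 24 h ahead; add compound, final 10/3/1/0.3 μM; incubate 72 h, 37 °C, 7.5% CO2; MTS 3 h; read A492.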

HT1080 = assay: MTS proliferation assay, HT1080; assay type: cell-based, human; conditions: HT1080, 72 h incubation, read-out: MTS proliferation assay IC 50 HT1080
Summary of the method: as §2

[1] = system: adherent cells or suspension cells; assay: Hoechst 33342 nuclear staining (fraction of apoptotic nuclei); assay type: cell-based; parameters: key: 0 relating to no activity; 1 relating to weak activity comprising less than 70% of the cells; score 2 relating to strong activity comprising more than 70% of the cells
Jurkat = assay: MTS proliferation assay, Jurkat; assay type: cell-based, human; conditions: 72 h incubation, read-out: MTS proliferation assay IC 50 Jurkat
Summary of the method: as §2

IC50 (HeLa): 100 to 1000 nM
IC50 (HT1080): 100 to 1000 nM
IC50 (Jurkat): 10 to 100 nM
SMILES: N#CCCNc1nonc1-c1nc2ccccc2n1CC(=O)c1ccc([N+](=O)[O-])cc1 [Example 57]
IC50 (Jily): 10 to 100 nM
IC50 (MRC5): 100 to 1000 nM
Hoechst 33342 nuclear staining score ([1]; H460, conc 0.01 μm): 0
Hoechst 33342 nuclear staining score ([1]; H460, conc 0.1 μm): 0
Hoechst 33342 nuclear staining score ([1]; H460, conc 1 μm): 0
Hoechst 33342 nuclear staining score ([1]; HeLa, conc 0.01 μm): 0
Hoechst 33342 nuclear staining score ([1]; HeLa, conc 0.1 μm): 0
Hoechst 33342 nuclear staining score ([1]; HeLa, conc 1 μm): 2 (score 2 relating to strong activity comprising more than 70% of the cells)
Hoechst 33342 nuclear staining score ([1]; Jily, conc 0.01 μm): 0
Hoechst 33342 nuclear staining score ([1]; Jily, conc 0.1 μm): 0
Hoechst 33342 nuclear staining score ([1]; Jily, conc 1 μm): 2 (score 2 relating to strong activity comprising more than 70% of the cells)
Hoechst 33342 nuclear staining score ([1]; Jurkat, conc 0.01 μm): 0
Hoechst 33342 nuclear staining score ([1]; Jurkat, conc 0.1 μm): 0
Hoechst 33342 nuclear staining score ([1]; Jurkat, conc 1 μm): 2 (score 2 relating to strong activity comprising more than 70% of the cells)
Hoechst 33342 nuclear staining score ([1]; MRC5, conc 0.01 μm): 0
Hoechst 33342 nuclear staining score ([1]; MRC5, conc 0.1 μm): 0
Hoechst 33342 nuclear staining score ([1]; MRC5, conc 1 μm): 2 (score 2 relating to strong activity comprising more than 70% of the cells)
Hoechst 33342 nuclear staining score ([1]; PBLs, conc 0.01 μm): 0
Hoechst 33342 nuclear staining score ([1]; PBLs, conc 0.1 μm): 0
Hoechst 33342 nuclear staining score ([1]; PBLs, conc 1 μm): 0

IC50 (HeLa; Homo sapiens): 10 to 100 nM
IC50 (HT1080; Homo sapiens, HT-1080): 10 to 100 nM
IC50 (Jurkat; Homo sapiens): < 10 nM
SMILES: N#CCCNc1nonc1-c1nc2ccccc2n1CC(=O)c1ccc(Cl)cc1 [Example 6, 4-[1-(4-Chlorophenacyl)-1H-benzimidazol-2-yl]-furazan-3-yl-N-(2-cyanoethyl)-amine]
IC50 (Jily): 10 to 100 nM
IC50 (MRC5; Homo sapiens): 100 to 1000 nM
Hoechst 33342 nuclear staining score ([1]; H460, conc 0.01 μm): 0
Hoechst 33342 nuclear staining score ([1]; H460, conc 0.1 μm): 2 (score 2 relating to strong activity comprising more than 70% of the cells)
Hoechst 33342 nuclear staining score ([1]; H460, conc 1 μm): 2 (score 2 relating to strong activity comprising more than 70% of the cells)
Hoechst 33342 nuclear staining score ([1]; HeLa, conc 0.01 μm): 0
Hoechst 33342 nuclear staining score ([1]; HeLa, conc 0.1 μm): 2 (score 2 relating to strong activity comprising more than 70% of the cells)
Hoechst 33342 nuclear staining score ([1]; HeLa, conc 1 μm): 2 (score 2 relating to strong activity comprising more than 70% of the cells)
Hoechst 33342 nuclear staining score ([1]; Jily, conc 0.01 μm): 2 (score 2 relating to strong activity comprising more than 70% of the cells)
Hoechst 33342 nuclear staining score ([1]; Jily, conc 0.1 μm): 2 (score 2 relating to strong activity comprising more than 70% of the cells)
Hoechst 33342 nuclear staining score ([1]; Jily, conc 1 μm): 2 (score 2 relating to strong activity comprising more than 70% of the cells)
Hoechst 33342 nuclear staining score ([1]; Jurkat, conc 0.01 μm): 2 (score 2 relating to strong activity comprising more than 70% of the cells)
Hoechst 33342 nuclear staining score ([1]; Jurkat, conc 0.1 μm): 2 (score 2 relating to strong activity comprising more than 70% of the cells)
Hoechst 33342 nuclear staining score ([1]; Jurkat, conc 1 μm): 2 (score 2 relating to strong activity comprising more than 70% of the cells)
Hoechst 33342 nuclear staining score ([1]; MRC5, conc 0.01 μm): 2 (score 2 relating to strong activity comprising more than 70% of the cells)
Hoechst 33342 nuclear staining score ([1]; MRC5, conc 0.1 μm): 2 (score 2 relating to strong activity comprising more than 70% of the cells)
Hoechst 33342 nuclear staining score ([1]; MRC5, conc 1 μm): 2 (score 2 relating to strong activity comprising more than 70% of the cells)
Hoechst 33342 nuclear staining score ([1]; PBLs, conc 0.01 μm): 0
Hoechst 33342 nuclear staining score ([1]; PBLs, conc 0.1 μm): 0
Hoechst 33342 nuclear staining score ([1]; PBLs, conc 1 μm): 0

IC50 (HeLa): 100 to 1000 nM
IC50 (HT1080): 100 to 1000 nM
IC50 (Jurkat): 100 to 1000 nM
SMILES: COc1cc(C(=O)Cn2c(-c3nonc3N)nc3ccccc32)ccc1OCc1ccccc1 [Example 73]
IC50 (Jily): 100 to 1000 nM
IC50 (MRC5): 100 to 1000 nM
Hoechst 33342 nuclear staining score ([1]; H460, conc 0.01 μm): 0
Hoechst 33342 nuclear staining score ([1]; H460, conc 0.1 μm): 0
Hoechst 33342 nuclear staining score ([1]; H460, conc 1 μm): 2 (score 2 relating to strong activity comprising more than 70% of the cells)
Hoechst 33342 nuclear staining score ([1]; HeLa, conc 0.01 μm): 0
Hoechst 33342 nuclear staining score ([1]; HeLa, conc 0.1 μm): 0
Hoechst 33342 nuclear staining score ([1]; HeLa, conc 1 μm): 1 (1 relating to weak activity comprising less than 70% of the cells)
Hoechst 33342 nuclear staining score ([1]; Jily, conc 0.01 μm): 0
Hoechst 33342 nuclear staining score ([1]; Jily, conc 0.1 μm): 0
Hoechst 33342 nuclear staining score ([1]; Jily, conc 1 μm): 1 (1 relating to weak activity comprising less than 70% of the cells)
Hoechst 33342 nuclear staining score ([1]; Jurkat, conc 0.01 μm): 0
Hoechst 33342 nuclear staining score ([1]; Jurkat, conc 0.1 μm): 0
Hoechst 33342 nuclear staining score ([1]; Jurkat, conc 1 μm): 2 (score 2 relating to strong activity comprising more than 70% of the cells)
Hoechst 33342 nuclear staining score ([1]; MRC5, conc 0.01 μm): 0
Hoechst 33342 nuclear staining score ([1]; MRC5, conc 0.1 μm): 0
Hoechst 33342 nuclear staining score ([1]; MRC5, conc 1 μm): 1 (1 relating to weak activity comprising less than 70% of the cells)
Hoechst 33342 nuclear staining score ([1]; PBLs, conc 0.01 μm): 0
Hoechst 33342 nuclear staining score ([1]; PBLs, conc 0.1 μm): 0
Hoechst 33342 nuclear staining score ([1]; PBLs, conc 1 μm): 0

IC50 (HeLa): 10 to 100 nM
IC50 (HT1080): 10 to 100 nM
IC50 (Jurkat): 10 to 100 nM
SMILES: Nc1ccc(C(=O)Cn2c(-c3nonc3N)nc3ccccc32)cc1 [Example 50]
IC50 (Jily): 10 to 100 nM
IC50 (MRC5): 10 to 100 nM
Hoechst 33342 nuclear staining score ([1]; H460, conc 0.01 μm): 1 (1 relating to weak activity comprising less than 70% of the cells)
Hoechst 33342 nuclear staining score ([1]; H460, conc 0.1 μm): 2 (score 2 relating to strong activity comprising more than 70% of the cells)
Hoechst 33342 nuclear staining score ([1]; H460, conc 1 μm): 2 (score 2 relating to strong activity comprising more than 70% of the cells)
Hoechst 33342 nuclear staining score ([1]; HeLa, conc 0.01 μm): 0
Hoechst 33342 nuclear staining score ([1]; HeLa, conc 0.1 μm): 2 (score 2 relating to strong activity comprising more than 70% of the cells)
Hoechst 33342 nuclear staining score ([1]; HeLa, conc 1 μm): 2 (score 2 relating to strong activity comprising more than 70% of the cells)
Hoechst 33342 nuclear staining score ([1]; Jily, conc 0.01 μm): 2 (score 2 relating to strong activity comprising more than 70% of the cells)
Hoechst 33342 nuclear staining score ([1]; Jily, conc 0.1 μm): 2 (score 2 relating to strong activity comprising more than 70% of the cells)
Hoechst 33342 nuclear staining score ([1]; Jily, conc 1 μm): 2 (score 2 relating to strong activity comprising more than 70% of the cells)
Hoechst 33342 nuclear staining score ([1]; Jurkat, conc 0.01 μm): 2 (score 2 relating to strong activity comprising more than 70% of the cells)
Hoechst 33342 nuclear staining score ([1]; Jurkat, conc 0.1 μm): 2 (score 2 relating to strong activity comprising more than 70% of the cells)
Hoechst 33342 nuclear staining score ([1]; Jurkat, conc 1 μm): 2 (score 2 relating to strong activity comprising more than 70% of the cells)
Hoechst 33342 nuclear staining score ([1]; MRC5, conc 0.01 μm): 0
Hoechst 33342 nuclear staining score ([1]; MRC5, conc 0.1 μm): 2 (score 2 relating to strong activity comprising more than 70% of the cells)
Hoechst 33342 nuclear staining score ([1]; MRC5, conc 1 μm): 2 (score 2 relating to strong activity comprising more than 70% of the cells)
Hoechst 33342 nuclear staining score ([1]; PBLs, conc 0.01 μm): 0
Hoechst 33342 nuclear staining score ([1]; PBLs, conc 0.1 μm): 0
Hoechst 33342 nuclear staining score ([1]; PBLs, conc 1 μm): 0
